Laboratory results: patent US11225482B2, “Dihydropyrrolopyrimidines for the treatment and prophylaxis of hepatitis B virus infection” (Hoffmann-La Roche Inc., priority 2017, dated 2022)

tested on: HBsAg; experiment: HBsAg assay (CLIA) in HepG2.2.15 cells; assay type: cell-based, HBV; conditions: Hepatitis B virus, HepG2.2.15, read-out: IC50 (HBsAg assay)
Description: HepG2.2.15 cells (Acs et al. Proc Natl Acad Sci USA, 84, (1987), 4641-4), a constitutively HBV-expressing cell line were cultured in DMEM+Glutamax-I medium (Invitrogen, Carlsbad, Calif., USA), supplemented with 10% fetal bovine serum (Invitrogen) and G418 (Invitrogen) at a final concentration of 200 mg/L and maintained in 5% CO2 at 37° C.
HepG2.2.15 cells were seeded in duplicate into white, 96-well plates at 1.5×10^4 cells/well. The cells were treated with a three-fold serial dilution series of the compounds in DMSO. The final DMSO concentration in all wells was 1% and DMSO was used as no drug control.
The HBsAg chemiluminescence immunoassay (CLIA) kit (Autobio Diagnostics Co., Zhengzhou, China, Catalog number: CL0310-2) was used to measure the levels of secreted HBV antigens semi-quantitatively. For the detection 50 μL/well culture supernatant was used and HBsAg was quantified using HBsAg chemiluminescence immunoassay (CLIA) kit (Autobio Diagnostics Co., Zhengzhou, China, Catalog number: CL0310-2), 50 μL of the supernatant was transferred to the CLIA assay plate and 50 μL of enzyme conjugate reagent was added into each well. The plates were sealed and gently agitated for 1 hour at room temperature. The supernatant-enzyme-mixture was discarded and wells were washed 6 times with 300 μL of PBS. The residual liquid was removed by plating the CLIA plate […] on absorbent tissue paper. 25 μL of substrates A and B were added to each well. Luminance was measured using a luminometer (Mithras LB 940 Multimode Microplate Reader) after 10 minutes incubation. Dose-response curves were generated and the IC50 value was extrapolated by using the E-WorkBook Suite (ID Business Solutions Ltd., Guildford, UK). The IC50 was defined as the compound concentration (or conditioned media log dilution) at which HBsAg secretion was reduced by 50% compared to the no drug control.

Row | SMILES | IC50
1 | CC1c2cnc(-c3ncccn3)nc2CN1C(=O)c1noc2ccccc12 (stereo not drawn) [Example 27, 1,2-Benzoxazol-3-yl-(5-methyl-2-pyrimidin-2-yl-5,7-dihydropyrrolo[3,4-d]pyrimidin-6-yl)methanone] | 620 nM
2 | CC1c2cnc(-c3ncccn3)nc2CN1c1cc(F)nc(N2CC3(COC3)C2)c1 (stereo not drawn) [Example 35, 6-[6-Fluoro-4-(5-Methyl-2-Pyrimidin-2-Yl-5,7-Dihydropyrrolo[3,4-d]Pyrimidin-6-Yl)-2-Pyridyl]-2-Oxa-6-Azaspiro[3.3]Heptane] | 588 nM
3 | CC1c2cnc(-c3ncccn3)nc2CN1c1cc(N2CCN(S(C)(=O)=O)CC2)cc(F)n1 (stereo not drawn) [Example 44, 6-[6-Fluoro-4-(4-methylsulfonylpiperazin-1-yl)-2-pyridyl]-5-methyl-2-pyrimidin-2-yl-5,7-dihydropyrrolo[3,4-d]pyrimidine] | 140 nM
4 | CC1c2cnc(-c3ncccn3)nc2CN1C(=O)c1ccc(Br)s1 (stereo not drawn) [Example 17, (5-Bromo-2-thienyl)-(5-methyl-2-pyrimidin-2-yl-5,7-dihydropyrrolo[3,4-d]pyrimidin-6-yl)methanone] | 761 nM
5 | CC1c2cnc(-c3ncccn3)nc2CN1c1cc(N2CCNCC2)cc(F)n1 (stereo not drawn) [Example 43, 6-(6-Fluoro-4-piperazin-1-yl-2-pyridyl)-5-methyl-2-pyrimidin-2-yl-5,7-dihydropyrrolo[3,4-d]pyrimidine] | 4270 nM
6 | Cc1ccc(C(=O)N2Cc3nc(-c4ncccn4)ncc3C2C)s1 (stereo not drawn) [Example 8, (5-Methyl-2-pyrimidin-2-yl-5,7-dihydropyrrolo[3,4-d]pyrimidin-6-yl)-(5-methyl-2-thienyl)methanone] | 681 nM
7 | CC1c2cnc(-c3ncccn3)nc2CN1c1cc(N2CCNC(=O)C2)cc(F)n1 (stereo not drawn) [Example 45, 4-[2-Fluoro-6-(5-methyl-2-pyrimidin-2-yl-5,7-dihydropyrrolo[3,4-d]pyrimidin-6-yl)-4-pyridyl]piperazin-2-one] | 160 nM
8 | CC1c2cnc(-c3ncccn3)nc2CN1C(=O)c1cn2ccccc2n1 (stereo not drawn) [Example 20, Imidazo[1,2-a]pyridin-2-yl-(5-methyl-2-pyrimidin-2-yl-5,7-dihydropyrrolo[3,4-d]pyrimidin-6-yl)methanone] | 502 nM
9 | CC1c2cnc(-c3ncccn3)nc2CN1c1cc(N2CCCCC2)cc(F)n1 (stereo not drawn) [Example 41, 6-[6-Fluoro-4-(1-piperidyl)-2-pyridyl]-5-methyl-2-pyrimidin-2-yl-5,7-dihydropyrrolo[3,4-d]pyrimidine] | 41 nM
10 | CC1c2cnc(-c3ncccn3)nc2CN1C(=O)c1cnn(C)c1 (stereo not drawn) [Example 11, (1-Methylpyrazol-4-yl)-(5-methyl-2-pyrimidin-2-yl-5,7-dihydropyrrolo[3,4-d]pyrimidin-6-yl)methanone] | 6170 nM
11 | CC1c2cnc(-c3ncccn3)nc2CN1C(=O)c1cc(C(F)(F)F)cs1 (stereo not drawn) [Example 3, (5-Methyl-2-pyrimidin-2-yl-5,7-dihydropyrrolo[3,4-d]pyrimidin-6-yl)-[4-(trifluoromethyl)-2-thienyl]methanone] | 546 nM
12 | CC1c2cnc(-c3ncccn3)nc2CN1C(=O)c1ccc([N+](=O)[O-])s1 (stereo not drawn) [Example 18, (5-Methyl-2-pyrimidin-2-yl-5,7-dihydropyrrolo[3,4-d]pyrimidin-6-yl)-(5-nitro-2-thienyl)methanone] | 724 nM
13 | CC1c2cnc(-c3ncccn3)nc2CN1c1cc(N(C)C)cc(F)n1 (stereo not drawn) [Example 38, 2-Fluoro-N,N-dimethyl-6-(5-methyl-2-pyrimidin-2-yl-5,7-dihydropyrrolo[3,4-d]pyrimidin-6-yl)pyridin-4-amine] | 15 nM
14 | CC1c2cnc(-c3ncccn3)nc2CN1C(=O)c1nc2ccccc2s1 (stereo not drawn) [Example 28, 1,3-Benzothiazol-2-yl-(5-methyl-2-pyrimidin-2-yl-5,7-dihydropyrrolo[3,4-d]pyrimidin-6-yl)methanone] | 1790 nM
15 | COc1ccc(C(=O)N2Cc3nc(-c4ncccn4)ncc3C2C)s1 (stereo not drawn) [Example 2, (5-Methoxy-2-thienyl)-(5-methyl-2-pyrimidin-2-yl-5,7-dihydropyrrolo[3,4-d]pyrimidin-6-yl)methanone] | 330 nM
16 | CC1c2cnc(-c3ncccn3)nc2CN1c1cc(F)nc(F)c1 (stereo not drawn) [Example 32, 6-(2,6-difluoro-4-pyridyl)-5-methyl-2-pyrimidin-2-yl-5,7-dihydropyrrolo[3,4-d]pyrimidine] | 2000 nM
17 | COc1cc(F)cc(C(=O)N2Cc3nc(-c4ncccn4)ncc3C2C)c1 (stereo not drawn) [Example 4, (3-Fluoro-5-methoxy-phenyl)-(5-methyl-2-pyrimidin-2-yl-5,7-dihydropyrrolo[3,4-d]pyrimidin-6-yl)methanone] | 14100 nM

Row | SMILES | IC50
18 | CC1c2cnc(-c3ncccn3)nc2CN1C(=O)c1ccn(C)n1 (stereo not drawn) [Example 13, (1-Methylpyrazol-3-yl)-(5-methyl-2-pyrimidin-2-yl-5,7-dihydropyrrolo[3,4-d]pyrimidin-6-yl)methanone] | 3540 nM
19 | CC1c2cnc(-c3ncccn3)nc2CN1c1cc(N2CCCC2)cc(F)n1 (stereo not drawn) [Example 40, 6-(6-Fluoro-4-pyrrolidin-1-yl-2-pyridyl)-5-methyl-2-pyrimidin-2-yl-5,7-dihydropyrrolo[3,4-d]pyrimidine] | 16 nM
20 | Cc1cnc(C(=O)N2Cc3nc(-c4ncccn4)ncc3C2C)s1 (stereo not drawn) [Example 1, (5-Methyl-2-pyrimidin-2-yl-5,7-dihydropyrrolo[3,4-d]pyrimidin-6-yl)-(5-methylthiazol-2-yl)methanone] | 700 nM
21 | CCn1ccc(C(=O)N2Cc3nc(-c4ncccn4)ncc3C2C)n1 (stereo not drawn) [Example 16, (1-Ethylpyrazol-3-yl)-(5-methyl-2-pyrimidin-2-yl-5,7-dihydropyrrolo[3,4-d]pyrimidin-6-yl)methanone] | 4690 nM
22 | Cc1csc(C(=O)N2Cc3nc(-c4ncccn4)ncc3C2C)c1 (stereo not drawn) [Example 6, (5-Methyl-2-pyrimidin-2-yl-5,7-dihydropyrrolo[3,4-d]pyrimidin-6-yl)-(4-methyl-2-thienyl)methanone] | 1110 nM
23 | CC1c2cnc(-c3ncccn3)nc2CN1C(=O)c1cccs1 (stereo not drawn) [Example 5, (5-Methyl-2-pyrimidin-2-yl-5,7-dihydropyrrolo[3,4-d]pyrimidin-6-yl)-(2-thienyl)methanone] | 1700 nM
24 | CC1c2cnc(-c3ncccn3)nc2CN1C(=O)c1ccc(Cl)s1 (stereo not drawn) [Example 9, (5-Chloro-2-thienyl)-(5-methyl-2-pyrimidin-2-yl-5,7-dihydropyrrolo[3,4-d]pyrimidin-6-yl)methanone] | 380 nM
25 | CC1c2cnc(-c3ncccn3)nc2CN1c1cc(N2CCC2)cc(F)n1 (stereo not drawn) [Example 39, 6-[4-(Azetidin-1-yl)-6-fluoro-2-pyridyl]-5-methyl-2-pyrimidin-2-yl-5,7-dihydropyrrolo[3,4-d]pyrimidine] | 20 nM
26 | CC1c2cnc(-c3ncccn3)nc2CN1C(=O)c1cnc2ccccn12 (stereo not drawn) [Example 26, Imidazo[1,2-a]pyridin-3-yl-(5-methyl-2-pyrimidin-2-yl-5,7-dihydropyrrolo[3,4-d]pyrimidin-6-yl)methanone] | 220 nM
27 | CC1c2cnc(-c3ncccn3)nc2CN1C(=O)c1cc(Br)cs1 (stereo not drawn) [Example 7, (4-Bromo-2-thienyl)-(5-methyl-2-pyrimidin-2-yl-5,7-dihydropyrrolo[3,4-d]pyrimidin-6-yl)methanone] | 920 nM
28 | CC(=O)N1CCN(c2cc(F)cc(N3Cc4nc(-c5ncccn5)ncc4C3C)n2)CC1 (stereo not drawn) [Example 34, 1-[4-[4-Fluoro-6-(5-Methyl-2-Pyrimidin-2-Yl-5,7-Dihydropyrrolo[3,4-d]Pyrimidin-6-Yl)-2-Pyridyl]Piperazin-1-Yl]Ethanone] | 361 nM
29 | CC1c2cnc(-c3ncccn3)nc2CN1C(=O)c1cnn2ccccc12 (stereo not drawn) [Example 24, (5-Methyl-2-pyrimidin-2-yl-5,7-dihydropyrrolo[3,4-d]pyrimidin-6-yl)-pyrazolo[1,5-a]pyridin-3-yl-methanone] | 156 nM
30 | CC1c2cnc(-c3ncccn3)nc2CN1C(=O)c1nc2ccccc2[nH]1 (stereo not drawn) [Example 14, 1H-Benzimidazol-2-yl-(5-methyl-2-pyrimidin-2-yl-5,7-dihydropyrrolo[3,4-d]pyrimidin-6-yl)methanone] | 422 nM
31 | CC1c2cnc(-c3ncccn3)nc2CN1C(=O)c1ccc2ncsc2c1 (stereo not drawn) [Example 25, 1,3-Benzothiazol-6-yl-(5-methyl-2-pyrimidin-2-yl-5,7-dihydropyrrolo[3,4-d]pyrimidin-6-yl)methanone] | 29000 nM
32 | COc1cncc(C(=O)N2Cc3nc(-c4ncccn4)ncc3C2C)n1 (stereo not drawn) [Example 22, (6-Methoxypyrazin-2-yl)-(5-methyl-2-pyrimidin-2-yl-5,7-dihydropyrrolo[3,4-d]pyrimidin-6-yl)methanone] | 4730 nM
33 | CNc1cc(F)nc(N2Cc3nc(-c4ncccn4)ncc3C2C)c1 (stereo not drawn) [Example 37, 2-Fluoro-N-methyl-6-(5-methyl-2-pyrimidin-2-yl-5,7-dihydropyrrolo[3,4-d]pyrimidin-6-yl)pyridin-4-amine] | 55 nM
